Data taken from PubChem BioAssay AID179 (DTP/NCI, 2004).
Active and inactive are the calls of the source.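 The calls were made as follows: active = compounds giving half or more protection of infected cells from virus-caused growth loss, again on retest; inactive = the rest.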

Tested on: CEM cells HIV-1 protection, formazan growth assay
Experiment: NCI AIDS Antiviral Assay
Conditions: for IC50: measured here: growth of uninfected CEM cells
In short: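 Category rules: moderately active means at least 50% protection on retest, and confirmed active means 100% protection reproducibly. The underlying data came from a formazan growth assay in HIV-1-infected CEM cells.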

Compound	EC50	IC50	outcome
CC(C)(C)c1ccc(OCCOc2ccc(C(C)(C)C)cc2N)c(N)c1	> 200 µM	> 200 µM	–
O=C1C=C2C(=NC34CCCCC3C(c3ccccc3)C3=C(c5ccccc5CC3)N24)c2ccccc21 (configuration not stated)	186 µM	> 200 µM	–
CC(CC(=O)N1C(=O)C(C)(C)[C@@H](O)[C@H]1CC(C)C(Cl)(Cl)Cl)C(Cl)(Cl)Cl (some centres not stated)	–	–	inactive
CC12COC3(C)CCC(C)(OC1)N23 (configuration not stated)	> 490 µM	> 490 µM	–
Cc1nc(C)c2c(n1)Oc1ccc3ccccc3c1C2	> 49 µM	> 49 µM	–
O/N=C(\C(=N/O)Nc1ccc(-c2ccc(NC(=N/O)/C(=N\O)c3ccccc3)cc2)cc1)c1ccccc1	> 37.2 µM	30.9 µM	–
Cc1ccc(S(=O)(=O)CC2(Br)Cc3ccccc3C2=O)cc1 (configuration not stated)	> 200 µM	5.75 µM	–
O=C1OC(=O)C2C1C(c1ccc([N+](=O)[O-])cc1)N1C3C(=O)OC(=O)C3C(c3ccc([N+](=O)[O-])cc3)N21 (configuration not stated)	> 27.5 µM	> 27.5 µM	–
COC1/C=C/OC2(C)Oc3c(C)c(O)c4c(O)c(c(/C=N/N5C(C)CN(Cc6ccc(NC(C)=O)cc6)CC5C)c(O)c4c3C2=O)NC(=O)C(C)=C/C=C/C(C)C(O)C(C)C(O)C(C)C(OC(C)=O)C1C (configuration not stated)	> 200 µM	9.12 µM	–
CCOC(=O)CC(NC(=O)c1[nH]cnc1/N=N/N(C)C)C(=O)OCC (configuration not stated)	> 708 µM	> 708 µM	–
N#C/C(=C1\SCC(=O)N1c1ccccc1)c1nc2ccccc2[nH]1	> 4.37 µM	> 4.37 µM	–
COc1ccc(OC)c(/C=C(/C#N)c2ccccc2)c1	> 10.2 µM	> 10.2 µM	–
CC1(C)Cc2cc(C(=O)O)c3c(c2C1=O)COCC3	–	–	inactive
CCCCCCCCCC1OC(CCCCCCCCC)OC(CCCCCCCCC)O1 (configuration not stated)	> 200 µM	> 200 µM	–
Cc1cc(C)c(-c2noc(-c3ccccc3)c2C2=NCCN2)c(C)c1	–	–	inactive
CCOc1ccc2nc(NC(=O)C(=O)C(C#N)CC(C)(C)C=O)sc2c1 (configuration not stated)	> 479 µM	263 µM	–
C[C@@]1(O)CC[C@]2(C)C3CCCC3[C@H]12 (some centres not stated)	–	–	inactive
CC1(CN2CCCCC2)COC(c2ccccc2)(c2ccccc2)OC1	> 200 µM	29.5 µM	–
COC(=O)CCCc1ccc2c(c1)CC1(C2)Cc2cc3c(cc2C1)CCCC3	> 200 µM	81.3 µM	–
CC12CCC(=O)N1c1cccnc1N2 (configuration not stated)	> 1320 µM	1120 µM	–
COc1ccc(-c2cc(=O)c3c(C)cc(O)cc3o2)cc1	81.3 µM	115 µM	–
CC(=O)N1CCCN(C)/C1=N/[N+](=O)[O-]	> 200 µM	> 200 µM	–

Compound	EC50	IC50	outcome
CC(C)(C)C(=O)/C=C(\OB(F)F)C(C)(C)C	> 200 µM	> 200 µM	–
C/C(=N\NC(N)=S)C(CN(CC(C)C)CC(C)C)C(=O)Nc1ccc(C)cc1C (configuration not stated)	> 85.1 µM	> 85.1 µM	–
Clc1ccc(CCN2CCOCC2)c(Cl)c1	> 63.1 µM	> 63.1 µM	–
CC1CCCN1c1ccnc2cc(Cl)ccc12 (configuration not stated)	> 1000 µM	288 µM	–
N#CCC(=O)NN=C1CCCCC1	> 200 µM	> 200 µM	–
CCOC(=O)/C=C(/C)Nc1nc2c(c(C(=O)OC)c1C#N)CCCC2	> 200 µM	> 200 µM	–
O=c1c2ccccc2[se]n1-c1ccccn1	7.76 µM	16.2 µM	–
COC(=O)C1=COC2OC3/C(=C\c4ccc(O)c(OC)c4)C(=O)OC34C=CC1C24 (configuration not stated)	> 200 µM	24 µM	–
Nc1nn2cc3c(nc2c1N=Nc1ccc(Cl)cc1)-c1ccccc1CC3	> 100 µM	> 100 µM	–
O=[N+]([O-])c1ccc(C[N+]23CCN(CC2)CC3)cc1	–	–	inactive
COc1c(OC2OC(CO)C(O)C(O)C2O)cc2c(c1OC)-c1ccc(SC)c(=O)cc1[C@@H](NC(C)=O)CC2 (some centres not stated)	–	–	inactive
O=[N+]([O-])c1ncn(S(=O)(=O)c2cccc3cccnc23)n1	> 200 µM	> 200 µM	–
O=C(/C=C/C(=O)c1cccs1)c1cccs1	> 20 µM	1.1 µM	–
O=C(Nc1ccc(C(F)(F)F)cc1[N+](=O)[O-])C(=O)C1NC(=S)NC1=O (configuration not stated)	> 95.5 µM	> 95.5 µM	–
CC1(C)CC(=O)C(CC2C(=O)CCCC2=O)C(=O)C1	> 955 µM	891 µM	–
CCOC(=O)C(=CNc1ccc(F)c(F)c1)C(=O)OCC	> 200 µM	79.4 µM	–
NS(=O)(=O)c1ccc(NNc2c3ccccc3nc3c(C(=O)Nc4ccc(S(N)(=O)=O)cc4)cccc23)cc1	> 200 µM	10.5 µM	–
COc1ccc(-c2oc3c(OC)c(OC)cc(O)c3c(=O)c2OC)cc1	> 200 µM	> 200 µM	–
O=C(Nc1ccc(Cl)cc1Cl)C1C(=O)C(=O)N(c2ccc(Cl)cc2Cl)C1=O (configuration not stated)	> 8.51 µM	> 8.51 µM	–
O=C1CN(C=C(C(=O)c2ccccc2)C(=O)c2ccccc2)C(=S)N1	–	–	inactive
CC(NC(=O)C(NC(=O)CNC(=O)OC(C)(C)C)C(C)C)C(=O)Oc1c(Cl)c(Cl)c(Cl)c(Cl)c1Cl (configuration not stated)	> 200 µM	29.5 µM	–
COC(=O)C1=C(C(=O)Nc2cccnc2Cl)N(c2ccc(OC)cc2[N+](=O)[O-])C(c2ccc(C)cc2)=CC1c1ccc(OC)cc1OC (configuration not stated)	> 100 µM	1.95 µM	–

Compound	EC50	IC50	outcome
COC(=O)C1CCC(=S)N1C(C)=O (configuration not stated)	> 200 µM	> 200 µM	–
CC(C)N(C(C)C)P(=O)(OP(=O)(c1ccc([N+](=O)[O-])cc1)N(C(C)C)C(C)C)c1ccc([N+](=O)[O-])cc1 (configuration not stated)	> 200 µM	151 µM	–
C#CC(C)(C)Oc1ccc2c(=O)c(-c3ccc(OC)c(OC)c3)coc2c1	> 200 µM	22.4 µM	–
Cc1cc(C)c2c(c1)CN1CN2Cc2cc(C)cc(C)c21	–	–	inactive
CC1(C)OC1COc1c2occc2cc2ccc(=O)oc12 (configuration not stated)	> 155 µM	74.1 µM	–
COc1ccc2ccccc2c1C1=NC(C)(C)CO1	> 977 µM	479 µM	–
COc1ccc(NC(=O)C(=O)C(CC2C(=O)NC(=S)NC2=O)C(=O)c2ccc3ccccc3c2)c([N+](=O)[O-])c1 (configuration not stated)	> 123 µM	> 123 µM	–
Brc1ccc2nc(-c3ccccc3)c3ccccc3c2c1	> 200 µM	> 200 µM	–
CC(C)(C)[Si](C)(C)OC1C(/C=N\O)OC(n2ccc(=O)[nH]c2=O)C1O[Si](C)(C)C(C)(C)C (configuration not stated)	> 200 µM	3.55 µM	–
CCOC(=O)c1nc2ccc(C(F)(F)F)cc2nc1NCc1ccc(OC)c(OC)c1	> 200 µM	85.1 µM	–
CC(=O)O[C@H]1[C@@H](OC2CCCC2(c2ccccc2)c2ccccc2)O[N+]([O-])=C[C@@]12COCc1cc3c(cc12)OCO3 (some centres not stated)	> 200 µM	11.7 µM	–
COCCN1C(=O)C(NC(C)=O)[C@H]1COC(C)(C)C (some centres not stated)	> 661 µM	> 661 µM	–
CC(C)C(NCc1c2ccccc2nc2ccccc12)C(=O)O (configuration not stated)	–	–	inactive
Cc1cc(N(CCC#N)CCC#N)ccc1CC1N=C(c2ccccc2)OC1=O (configuration not stated)	> 93.3 µM	> 93.3 µM	–
c1ccc(-c2csc3[n+]2CCN3)cc1	> 200 µM	126 µM	–
O=C1C(=O)N(c2ccc(Cl)cc2Cl)C(=O)C(=O)C1c1nc2ccccc2s1	> 85.1 µM	> 85.1 µM	–
CN1C(=O)N(c2ccccc2)C2(CCN(CC3COc4ccccc4O3)CC2)C1=O (configuration not stated)	> 200 µM	> 200 µM	–
COc1ccc(C2=C(OC(C)=O)c3cccn3-c3ccccc3S2)cc1	> 200 µM	1.32 µM	–
COc1cc(CO)c(C2OC(CO)C(O)C2O)c(OC)c1 (configuration not stated)	–	–	inactive
CCOC#CCCOCc1ccccc1	> 66.1 µM	> 66.1 µM	–
COC(=O)c1ccccc1N(C(=O)c1ccccc1)c1ccccc1C	–	–	inactive
CC1CC2=C(S(=O)(=O)c3ccccc3)CC(S(=O)(=O)c3ccccc3)(S(=O)(=O)c3ccccc3)CC21 (configuration not stated)	> 50.1 µM	> 50.1 µM	–

Compound	EC50	IC50	outcome
O=C1NC(=O)N2CCSC2(Cc2ccccc2)N1 (configuration not stated)	–	–	inactive
COC(C[C@H]1CCCC[C@]1(O)/C(=C\CO[Si](C(C)C)(C(C)C)C(C)C)Sc1ccccc1)OC	> 200 µM	72.4 µM	–
COC1(OC)N=C(N)C2(C#N)C3(C(=O)N(C(C)C)N=C3C)C12C#N (configuration not stated)	> 200 µM	> 200 µM	–
CCCCCC[N+](C)(C)Cc1ccc(C[N+](C)(C)CCCCCC)cc1	–	–	inactive
Cc1ccc([N+](=O)[O-])c2c(NCC(O)CO)ccnc12 (configuration not stated)	> 33.9 µM	26.3 µM	–
Cc1nc(N2N=C(c3ccc(Cl)cc3)CCC2=O)sc1[N+](=O)[O-]	> 74.1 µM	32.4 µM	–
c1cc(C[S+]2CCCC2)oc1C[S+]1CCCC1	> 200 µM	102 µM	–
NC(=O)C1(c2ccccc2)Nc2ccccc2S1 (configuration not stated)	> 977 µM	102 µM	–
CCOC(=O)c1nc2ccc(C(F)(F)F)cc2nc1Oc1ccc(F)cc1	> 200 µM	> 200 µM	–
C/C(Cl)=N\OC(=O)Nc1ccc([N+](=O)[O-])cc1	> 200 µM	10.5 µM	–
Cc1nn(C(=O)c2ccc(Cl)cc2)c2c1C(c1ccc(O)cc1)SC(N)=N2 (configuration not stated)	> 200 µM	> 200 µM	–
Cn1cc(NC(=O)Nc2cc(C(=O)Nc3cc(C(=O)Nc4ccc5cc(S(=O)(=O)O)cc(S(=O)(=O)O)c5c4)n(C)n3)n(C)c2)cc1C(=O)Nc1cc(C(=O)Nc2ccc3cc(S(=O)(=O)O)cc(S(=O)(=O)O)c3c2)n(C)n1	5.5 µM	> 100 µM	–
CC(=O)Oc1c(C)c(-c2ccccc2)c(C)c(-c2ccccc2)c1C(=S)c1ccccc1	–	–	inactive
Cn1c(=O)c2c3oc(=O)cc(O)c3c(=O)n3c4ccccc4n(c1=O)c23	> 2.14 µM	> 2.14 µM	–
CCOC(=O)C1CC(C(=O)OCC)(c2ccccc2)CCC1=O (configuration not stated)	> 58.9 µM	47.9 µM	–
CCOC(=O)C1=C(O)c2ccccc2C(=O)C1=O	> 525 µM	316 µM	–
O=C1NC(=S)S/C1=C\c1ccc(Cl)cc1	> 74.1 µM	66.1 µM	–
Nc1ccc(Sc2nnc(N)s2)cc1	> 224 µM	> 224 µM	–
CNC1C(O)C(OC2C(N)CC(N)C(OC3OC(CN)=CCC3N)C2O)OCC1(C)O (configuration not stated)	–	–	inactive
O=C1/C(=C/c2cccc([N+](=O)[O-])c2)CCCc2ccccc21	> 200 µM	6.31 µM	–
